Results from ChEMBL document CHEMBL4609981, “Discovery of novel nonpeptide small-molecule NRP1 antagonists: Virtual screening, molecular simulation and structural modification” (Bioorg Med Chem, 2020).
Active and inactive are the calls of the source. The calls are words filed in the database; no cut-off is given here.

Legend:
Neuropilin-1 [1] = biological target: T1, Neuropilin-1 (Homo sapiens, UniProt O14786); assay: (§1) Inhibition of recombinant human biotinylated VEGF-165A expressed in HEK293 cells binding to immobilized recombinant full length human FC-tagged NRP1 (chimera active) expressed in HEK293 cells at 50 uM using TMB as substrate incubated for 2 hrs followed by substrate addition by competitive ELISA relative to control
Neuropilin-1 [2] = biological target: T1, Neuropilin-1; assay: Inhibition of recombinant human biotinylated VEGF-165A expressed in HEK293 cells binding to immobilized recombinant full length human FC-tagged NRP1 (chimera active) expressed in HEK293 cells using TMB as substrate incubated for 2 hrs followed by substrate addition by competitive ELISA
[3] = biological target: Vascular endothelial growth factor receptor 2 (Homo sapiens) (UniProt P35968); assay: Inhibition of recombinant human biotinylated VEGF-165A expressed in HEK293 cells binding to FC-tagged VEGFR2 (unknown origin) using TMB as substrate incubated for 2 hrs followed by substrate addition by competitive ELISA
Neuropilin-1 [4] = biological target: T1, Neuropilin-1; assay: as §1, with “11” for “50”
Neuropilin-1 [5] = biological target: T1, Neuropilin-1; assay: Inhibition of biotinylated VEGF-165A binding to NRP1 (unknown origin) at 10 uM measured after 2 hrs chemiluminescence analysis relative to control
Neuropilin-1 [6] = biological target: T1, Neuropilin-1; assay: Inhibition of biotinylated […] binding to NRP1 (unknown origin) measured after 2 hrs chemiluminescence analysis

T1 sequence (O14786 whole entry): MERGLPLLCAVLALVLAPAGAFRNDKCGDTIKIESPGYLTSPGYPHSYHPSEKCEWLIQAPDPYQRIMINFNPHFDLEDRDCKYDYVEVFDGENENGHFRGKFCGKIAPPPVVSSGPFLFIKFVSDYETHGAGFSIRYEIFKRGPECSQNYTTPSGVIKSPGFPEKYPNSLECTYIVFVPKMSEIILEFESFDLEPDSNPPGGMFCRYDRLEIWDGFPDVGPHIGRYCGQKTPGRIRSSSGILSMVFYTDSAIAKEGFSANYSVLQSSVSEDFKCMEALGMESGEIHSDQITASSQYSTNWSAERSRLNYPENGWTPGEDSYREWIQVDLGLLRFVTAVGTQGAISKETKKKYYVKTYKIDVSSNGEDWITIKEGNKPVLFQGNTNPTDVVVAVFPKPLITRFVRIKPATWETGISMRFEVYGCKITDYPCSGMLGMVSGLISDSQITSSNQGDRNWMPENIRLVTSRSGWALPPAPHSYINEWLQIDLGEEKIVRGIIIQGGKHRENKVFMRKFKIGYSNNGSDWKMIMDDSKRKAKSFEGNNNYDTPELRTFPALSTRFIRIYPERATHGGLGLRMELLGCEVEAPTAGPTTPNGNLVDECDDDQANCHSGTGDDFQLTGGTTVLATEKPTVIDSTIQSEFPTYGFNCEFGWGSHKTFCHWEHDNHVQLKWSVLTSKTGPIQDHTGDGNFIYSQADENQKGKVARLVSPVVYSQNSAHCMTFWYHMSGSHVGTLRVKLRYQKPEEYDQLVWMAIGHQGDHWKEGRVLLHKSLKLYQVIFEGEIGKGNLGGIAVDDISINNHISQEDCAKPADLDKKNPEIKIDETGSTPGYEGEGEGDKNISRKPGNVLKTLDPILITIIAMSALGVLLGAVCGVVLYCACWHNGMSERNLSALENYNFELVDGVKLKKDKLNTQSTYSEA
Vascular endothelial growth factor receptor 2 (Homo sapiens), sequence (P35968 whole entry): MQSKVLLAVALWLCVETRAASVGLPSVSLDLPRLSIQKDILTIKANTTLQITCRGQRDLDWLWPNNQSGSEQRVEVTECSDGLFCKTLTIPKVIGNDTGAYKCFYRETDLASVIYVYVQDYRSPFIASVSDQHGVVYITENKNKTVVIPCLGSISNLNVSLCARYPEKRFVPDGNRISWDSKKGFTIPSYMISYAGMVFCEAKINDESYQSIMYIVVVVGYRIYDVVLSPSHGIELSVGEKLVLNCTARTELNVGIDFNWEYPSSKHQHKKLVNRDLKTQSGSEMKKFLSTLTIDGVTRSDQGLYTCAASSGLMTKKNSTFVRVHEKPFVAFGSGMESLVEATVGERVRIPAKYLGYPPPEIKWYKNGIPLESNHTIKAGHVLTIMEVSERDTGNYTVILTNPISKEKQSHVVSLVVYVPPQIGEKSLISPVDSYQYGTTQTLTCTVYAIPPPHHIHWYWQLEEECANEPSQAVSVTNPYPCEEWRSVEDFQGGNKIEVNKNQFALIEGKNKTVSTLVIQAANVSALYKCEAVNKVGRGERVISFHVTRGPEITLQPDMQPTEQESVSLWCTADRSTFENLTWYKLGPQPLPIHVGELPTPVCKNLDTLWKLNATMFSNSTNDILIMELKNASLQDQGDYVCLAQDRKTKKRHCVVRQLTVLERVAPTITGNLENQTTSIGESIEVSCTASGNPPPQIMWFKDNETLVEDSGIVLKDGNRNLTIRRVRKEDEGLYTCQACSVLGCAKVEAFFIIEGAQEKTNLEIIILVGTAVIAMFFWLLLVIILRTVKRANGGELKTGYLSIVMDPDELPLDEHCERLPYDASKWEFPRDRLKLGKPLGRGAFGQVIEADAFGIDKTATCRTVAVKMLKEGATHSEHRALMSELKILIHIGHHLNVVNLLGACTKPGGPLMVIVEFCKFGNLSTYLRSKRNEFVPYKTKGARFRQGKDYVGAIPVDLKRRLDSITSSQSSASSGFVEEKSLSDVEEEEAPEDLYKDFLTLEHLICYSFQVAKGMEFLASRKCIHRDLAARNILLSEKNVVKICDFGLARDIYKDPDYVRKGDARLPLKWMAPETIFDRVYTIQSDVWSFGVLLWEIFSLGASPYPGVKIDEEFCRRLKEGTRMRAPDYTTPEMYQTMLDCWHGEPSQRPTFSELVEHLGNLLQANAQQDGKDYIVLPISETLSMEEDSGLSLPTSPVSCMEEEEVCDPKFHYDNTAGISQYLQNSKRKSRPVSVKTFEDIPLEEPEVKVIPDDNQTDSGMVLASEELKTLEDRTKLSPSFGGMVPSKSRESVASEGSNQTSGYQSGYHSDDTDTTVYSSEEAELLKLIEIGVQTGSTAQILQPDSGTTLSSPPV

Row | Compound | inhibition (Neuropilin-1 [1]) [%] | other results
1 | CCc1nnc(NC(=O)CSc2nnc(-c3ccc(Cl)cc3)n2-c2cccc(C)c2)s1 | 37.4 | –
2 | CCc1nnc(NC(=O)CSc2nnc(Cc3ccccc3)n2-c2cccc(C)c2)s1 | 4.3 | –
3 | CCc1nnc(NC(=O)CSc2nnc(-c3ccc(N)cc3)n2-c2cccc(C)c2)s1 | 15.4 | –
4 | CCc1nnc(NC(=O)CSc2nnc(-c3ccc(O)cc3)n2-c2cccc(C)c2)s1 | 59.9 | IC50 (Neuropilin-1 [2]): 41.7 µM
5 | N=C(N)NCCC[C@H](NC(=O)c1sccc1NS(=O)(=O)c1cccc2nsnc12)C(=O)O | – | inhibition [3]: Active; IC50 (Neuropilin-1 [2]): 11.1 to 12.7 µM; inhibition (Neuropilin-1 [4]): 49.1 to 49.8%
6 | CCOc1ccccc1NC(=O)c1ccc(C)c(S(=O)(=O)Nc2ccc(C)cc2)c1 | – | inhibition (Neuropilin-1 [5]): 32%
7 | CCc1nnc(NC(=O)CSc2nnc(-c3ccc(C)cc3)n2-c2cccc(C)c2)s1 | 76 | inhibition [3]: Active; IC50 (Neuropilin-1 [2]): 19.1 µM
8 | O=C(CSc1nnc(-c2ccccc2)n1-c1cccc(Cl)c1)Nc1nnc(C2CC2)s1 | 22.5 | –
9 | CCc1nnc(NC(=O)CSc2nncn2-c2cccc(Cl)c2)s1 | 0 | –
10 | COCc1nnc(NC(=O)CSc2nnc(-c3ccccc3)n2-c2cccc(C)c2)s1 | 10.3 | –
11 | CCc1nnc(NC(=O)CSc2nnc(-c3cccc(C)c3)n2-c2cccc(C)c2)s1 | 12.6 | –
12 | Cc1ccc(-c2nc3ccccc3[nH]2)cc1NC(=S)NC(=O)c1ccc2c(c1)OCCO2 | – | IC50 (Neuropilin-1 [6]): 34 µM
13 | CCc1nnc(NC(=O)CSc2nnc(-c3cccnc3)n2-c2cccc(C)c2)s1 | 0 | –
14 | O=C(CSc1nnc(-c2ccccc2)n1-c1cccc(Cl)c1)Nc1nccs1 | 4 | –
15 | Cc1cccc(-n2c(SCC(=O)Nc3nnc(C)s3)nnc2-c2ccccc2)c1 | 31.5 | –
16 | CCc1nnc(NC(=O)CSc2nnc(-c3ccccc3)[nH]2)s1 | 2.1 | –
17 | O=C(CSc1nnc(-c2ccccc2)n1-c1cccc(Cl)c1)Nc1nncs1 | 20.3 | –

Now from value to molecule, other results behind:

Row | inhibition (Neuropilin-1 [1]) [%] | Compound | other results
18 | 4.8 | CCc1nnc(NC(=O)CSc2nnc(-c3ccccc3)n2-c2ccccc2)s1 | –
19 | 66.6 | CCc1nnc(NC(=O)CSc2nnc(-c3ccccc3)n2-c2cccc(C)c2)s1 | IC50 (Neuropilin-1 [2]): 41.1 µM
20 | 0 | CCc1nnc(NC(=O)CSc2nnc(-c3ccccc3)n2-c2cccnc2)s1 | –
21 | 47.6 | CCc1nnc(NC(=O)CSc2nnc(-c3ccccc3)n2-c2cccc(Cl)c2)s1 | –
22 | 0 | CCc1nnc(NC(=O)CSc2nnc(-c3ccccc3)n2-c2cccc(OC)c2)s1 | –
23 | 5.3 | CCc1nnc(NC(=O)CSc2nnc(-c3ccccc3)n2-c2ccccc2Cl)s1 | –
24 | 4.1 | CCc1nnc(NC(=O)CSc2nnc(-c3ccccc3)n2Cc2cccc(C)c2)s1 | –
25 | 3.2 | CCc1nnc(NC(=O)CSc2nnc(-c3ccccc3)n2-c2ccc(Cl)cc2)s1 | –
26 | 6 | CCc1nnc(NC(=O)CSc2nnc(-c3ccccc3)n2-c2cccc(F)c2)s1 | –
27 | 47.8 | CCCc1nnc(NC(=O)CSc2nnc(-c3ccccc3)n2-c2cccc(C)c2)s1 | –
